Like-named read-outs stand apart in the source and are kept apart here.

One assay concerns the target EGFR L858R/C797S (Homo sapiens, UniProt P00533, C797S/L858R). Nature of the assay: Biochemical EGFR kinase inhibition assay (Lance Ultra TR-FRET), double mutant L858R/C797S. The gist of the method: (§1)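 Enzyme reactions lasted 1 hour at room temperature with test compounds between 0.003 and 10 μM, followed by 10 mM EDTA quench.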
In general terms: In TR-FRET formats the signal depends on donor and acceptor labels being close together.

A further assay addresses EGFR Del19/T790M/C797S (Homo sapiens, UniProt P00533, C797S/DEL746-750/T790M). The assay is described as follows: Biochemical EGFR kinase inhibition assay (Lance Ultra TR-FRET), triple mutant del19/T790M/C797S. The gist of the method:
as §1

A further assay concerns the target EGFR wildtype (WT) (Homo sapiens, UniProt P00533). Nature of the assay: Biochemical EGFR kinase inhibition assay (Lance Ultra TR-FRET), wildtype. The gist of the method: as §1
A further assay concerns the target EGFR Del19/C797S (Homo sapiens, UniProt P00533, C797S/DEL746-750). The assay is described as follows: Biochemical EGFR kinase inhibition assay (Lance Ultra TR-FRET), double mutant del19/C797S. The gist of the method:
as §1

For the next assay, the target named is EGFR L858R/T790M/C797S (Homo sapiens, UniProt P00533, C797S/L858R/T790M). The assay is described as follows: Biochemical EGFR kinase inhibition assay (Lance Ultra TR-FRET), triple mutant L858R/T790M/C797S. The gist of the method: as §1
EGFR L858R/T790M/C797S, sequence (P00533 25-1210 T790M/C797S/L858R): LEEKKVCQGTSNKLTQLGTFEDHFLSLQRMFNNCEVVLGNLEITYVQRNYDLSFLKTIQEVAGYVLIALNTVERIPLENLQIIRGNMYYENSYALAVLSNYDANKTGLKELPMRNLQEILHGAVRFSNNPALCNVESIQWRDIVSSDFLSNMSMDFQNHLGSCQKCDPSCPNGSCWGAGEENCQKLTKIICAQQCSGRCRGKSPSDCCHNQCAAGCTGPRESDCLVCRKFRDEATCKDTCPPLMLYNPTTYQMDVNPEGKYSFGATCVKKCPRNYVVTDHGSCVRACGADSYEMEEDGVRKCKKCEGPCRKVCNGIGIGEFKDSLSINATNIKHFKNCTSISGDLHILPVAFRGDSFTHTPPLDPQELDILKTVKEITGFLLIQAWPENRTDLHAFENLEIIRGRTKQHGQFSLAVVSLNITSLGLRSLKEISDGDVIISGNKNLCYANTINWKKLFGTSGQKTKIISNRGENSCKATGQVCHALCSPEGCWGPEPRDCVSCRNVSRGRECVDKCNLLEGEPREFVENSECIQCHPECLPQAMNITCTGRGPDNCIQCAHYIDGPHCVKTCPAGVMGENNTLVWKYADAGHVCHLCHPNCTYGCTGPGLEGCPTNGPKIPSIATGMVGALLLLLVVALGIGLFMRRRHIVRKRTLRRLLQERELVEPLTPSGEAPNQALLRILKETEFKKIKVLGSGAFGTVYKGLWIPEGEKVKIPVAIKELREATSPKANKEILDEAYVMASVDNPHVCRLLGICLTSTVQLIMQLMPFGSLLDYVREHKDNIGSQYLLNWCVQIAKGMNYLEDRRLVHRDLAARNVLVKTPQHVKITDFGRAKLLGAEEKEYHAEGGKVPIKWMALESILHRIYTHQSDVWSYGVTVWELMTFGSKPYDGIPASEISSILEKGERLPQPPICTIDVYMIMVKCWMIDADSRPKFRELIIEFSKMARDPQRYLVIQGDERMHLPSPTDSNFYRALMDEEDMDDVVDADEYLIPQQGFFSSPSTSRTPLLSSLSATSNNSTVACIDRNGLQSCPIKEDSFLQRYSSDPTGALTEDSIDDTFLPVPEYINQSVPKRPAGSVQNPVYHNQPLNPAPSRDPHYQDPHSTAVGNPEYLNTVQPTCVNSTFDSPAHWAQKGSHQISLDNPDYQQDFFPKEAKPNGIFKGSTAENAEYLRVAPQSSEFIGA
[1] abbreviates: ATP at Km, read-out: IC50 L858R/C797S (nM), Km ATP.
Where [2] appears, read: IC50 L858R/C797S (nM), 100 μM ATP.
Setting [3] is: ATP at Km, read-out: IC50 Del19/T790M/C797S (nM), Km ATP.
Setting [4] is: IC50 Del19/T790M/C797S (nM), 100 μM ATP.
The mark [5] stands for this setting: ATP at Km, read-out: IC50 WT (nM), Km ATP.
[6] abbreviates: ATP at Km, read-out: IC50 Del19/C797S (nM), Km ATP.
[7] abbreviates: IC50 Del19/C797S (nM), 100 μM ATP.
The mark [8] stands for this setting: ATP at Km, read-out: IC50 L858R/T790M/C797S (nM), Km ATP.
[9] abbreviates: IC50 L858R/T790M/C797S (nM), 100 μM ATP.

EGFR wildtype (WT), sequence (P00533 25-1210): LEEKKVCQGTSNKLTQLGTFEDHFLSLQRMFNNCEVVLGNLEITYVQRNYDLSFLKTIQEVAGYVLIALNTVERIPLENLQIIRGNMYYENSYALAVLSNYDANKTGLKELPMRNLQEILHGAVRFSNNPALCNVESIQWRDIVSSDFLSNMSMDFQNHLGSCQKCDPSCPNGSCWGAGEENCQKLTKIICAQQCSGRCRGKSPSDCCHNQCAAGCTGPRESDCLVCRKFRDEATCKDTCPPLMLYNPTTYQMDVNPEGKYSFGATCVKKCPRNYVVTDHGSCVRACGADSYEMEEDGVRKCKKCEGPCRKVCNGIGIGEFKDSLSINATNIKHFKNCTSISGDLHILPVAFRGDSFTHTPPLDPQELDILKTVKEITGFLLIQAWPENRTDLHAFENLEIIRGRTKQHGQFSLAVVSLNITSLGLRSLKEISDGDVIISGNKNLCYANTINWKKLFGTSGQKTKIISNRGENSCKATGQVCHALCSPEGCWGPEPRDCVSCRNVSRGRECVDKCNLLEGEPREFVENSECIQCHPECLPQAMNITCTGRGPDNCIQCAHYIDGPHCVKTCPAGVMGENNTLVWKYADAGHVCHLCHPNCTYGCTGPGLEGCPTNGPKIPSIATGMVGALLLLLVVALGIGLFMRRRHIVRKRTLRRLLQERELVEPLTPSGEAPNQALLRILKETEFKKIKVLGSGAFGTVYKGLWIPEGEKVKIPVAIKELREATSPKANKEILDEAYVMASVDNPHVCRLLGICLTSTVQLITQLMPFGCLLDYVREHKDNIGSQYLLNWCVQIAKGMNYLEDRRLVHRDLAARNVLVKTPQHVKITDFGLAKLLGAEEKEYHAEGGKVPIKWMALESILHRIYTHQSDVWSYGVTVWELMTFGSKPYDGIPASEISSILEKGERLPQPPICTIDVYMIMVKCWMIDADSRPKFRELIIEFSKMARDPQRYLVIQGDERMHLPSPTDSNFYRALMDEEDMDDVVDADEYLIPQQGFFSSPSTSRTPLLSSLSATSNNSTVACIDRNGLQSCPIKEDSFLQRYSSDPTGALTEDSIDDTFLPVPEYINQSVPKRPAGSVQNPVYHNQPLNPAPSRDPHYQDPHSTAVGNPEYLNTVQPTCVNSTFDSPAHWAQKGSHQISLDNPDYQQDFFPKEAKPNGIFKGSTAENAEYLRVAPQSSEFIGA
EGFR Del19/C797S, sequence (P00533 with tags, fused parts or gaps DEL746-750/C797S): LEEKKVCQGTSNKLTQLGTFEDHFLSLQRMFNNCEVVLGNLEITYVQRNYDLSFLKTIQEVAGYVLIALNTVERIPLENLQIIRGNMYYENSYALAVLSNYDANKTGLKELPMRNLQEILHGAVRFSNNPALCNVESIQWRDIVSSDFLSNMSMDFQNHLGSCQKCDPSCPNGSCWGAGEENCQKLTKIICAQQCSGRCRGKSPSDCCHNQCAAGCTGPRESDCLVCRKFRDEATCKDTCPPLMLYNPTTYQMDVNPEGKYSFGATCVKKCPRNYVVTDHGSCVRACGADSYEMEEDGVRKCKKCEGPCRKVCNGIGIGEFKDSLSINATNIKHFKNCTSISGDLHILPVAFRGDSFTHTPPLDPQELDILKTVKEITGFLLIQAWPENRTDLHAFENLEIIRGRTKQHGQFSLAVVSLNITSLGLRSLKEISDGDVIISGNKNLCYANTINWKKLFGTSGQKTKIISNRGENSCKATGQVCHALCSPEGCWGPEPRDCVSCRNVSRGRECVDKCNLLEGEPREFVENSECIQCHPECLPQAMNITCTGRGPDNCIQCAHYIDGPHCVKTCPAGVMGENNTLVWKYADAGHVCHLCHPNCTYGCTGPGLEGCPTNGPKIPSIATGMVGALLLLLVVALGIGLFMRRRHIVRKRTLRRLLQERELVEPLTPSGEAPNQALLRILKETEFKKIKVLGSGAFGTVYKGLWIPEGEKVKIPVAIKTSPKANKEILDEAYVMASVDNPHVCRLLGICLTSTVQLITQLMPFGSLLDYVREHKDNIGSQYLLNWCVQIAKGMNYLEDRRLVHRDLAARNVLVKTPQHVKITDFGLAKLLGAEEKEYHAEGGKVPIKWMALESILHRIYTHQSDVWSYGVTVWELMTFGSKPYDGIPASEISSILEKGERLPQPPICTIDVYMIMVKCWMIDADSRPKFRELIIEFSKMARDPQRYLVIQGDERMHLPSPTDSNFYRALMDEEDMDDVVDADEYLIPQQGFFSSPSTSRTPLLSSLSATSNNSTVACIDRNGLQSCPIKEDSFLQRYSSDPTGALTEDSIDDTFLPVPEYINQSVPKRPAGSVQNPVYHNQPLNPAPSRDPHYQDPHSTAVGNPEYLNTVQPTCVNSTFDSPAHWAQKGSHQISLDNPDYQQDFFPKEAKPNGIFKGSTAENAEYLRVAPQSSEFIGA
EGFR Del19/T790M/C797S, sequence (P00533 with tags, fused parts or gaps DEL746-750/T790M/C797S): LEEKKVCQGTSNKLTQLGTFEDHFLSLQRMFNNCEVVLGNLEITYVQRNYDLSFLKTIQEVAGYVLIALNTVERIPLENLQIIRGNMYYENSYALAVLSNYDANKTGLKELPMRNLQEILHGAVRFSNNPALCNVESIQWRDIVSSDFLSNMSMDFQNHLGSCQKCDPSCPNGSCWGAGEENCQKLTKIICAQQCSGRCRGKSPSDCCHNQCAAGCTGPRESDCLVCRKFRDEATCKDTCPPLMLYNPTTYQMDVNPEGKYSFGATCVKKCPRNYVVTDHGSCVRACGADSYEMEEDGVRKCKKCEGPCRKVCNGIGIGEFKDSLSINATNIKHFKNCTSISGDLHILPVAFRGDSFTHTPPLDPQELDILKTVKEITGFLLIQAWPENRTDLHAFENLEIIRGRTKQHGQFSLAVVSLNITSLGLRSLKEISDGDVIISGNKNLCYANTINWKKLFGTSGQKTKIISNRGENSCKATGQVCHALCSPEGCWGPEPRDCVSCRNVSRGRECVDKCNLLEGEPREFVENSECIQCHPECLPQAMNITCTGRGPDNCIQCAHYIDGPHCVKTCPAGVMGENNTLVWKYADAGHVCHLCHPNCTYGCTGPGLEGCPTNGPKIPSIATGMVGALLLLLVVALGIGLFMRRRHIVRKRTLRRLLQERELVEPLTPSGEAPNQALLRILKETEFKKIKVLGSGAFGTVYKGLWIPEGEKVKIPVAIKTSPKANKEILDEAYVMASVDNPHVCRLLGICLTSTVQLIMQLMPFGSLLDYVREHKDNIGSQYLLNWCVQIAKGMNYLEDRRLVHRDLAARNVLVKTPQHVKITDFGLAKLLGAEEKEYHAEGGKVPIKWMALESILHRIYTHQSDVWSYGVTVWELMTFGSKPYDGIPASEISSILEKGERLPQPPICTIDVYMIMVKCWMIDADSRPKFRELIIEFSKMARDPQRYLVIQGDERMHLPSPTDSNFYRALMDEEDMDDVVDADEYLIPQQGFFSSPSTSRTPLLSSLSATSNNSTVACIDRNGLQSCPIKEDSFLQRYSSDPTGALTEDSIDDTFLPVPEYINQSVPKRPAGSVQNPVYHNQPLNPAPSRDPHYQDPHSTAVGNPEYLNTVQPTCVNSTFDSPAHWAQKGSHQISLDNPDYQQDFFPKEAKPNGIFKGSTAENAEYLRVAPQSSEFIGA

As for `CN1CCC(C#Cc2cnc(Nc3ccnc(-c4cnn(S(=O)(=O)C5CC5)c4)n3)cc2NC2CCC(O)CC2)C1` (centres unmarked) [Example 181, (1s,4s)-4-((2-((2-(1-(Cyclopropylsulfonyl)-1H-pyrazol-4-yl)pyrimidin-4-yl)amino)-5-((1-methylpyrrolidin-3-yl)ethynyl)pyridin-4-yl)amino)cyclohexan-1-ol], the IC50 on EGFR L858R/C797S (setting [1]) turned out to be 0.6 nM; against EGFR L858R/C797S (setting [2]), 6 nM; on EGFR Del19/T790M/C797S (setting [3]), 0.1 nM; against EGFR Del19/T790M/C797S (setting [4]) it was 0.1 nM; on EGFR wildtype (WT) (setting [5]) it was 6.1 nM; on EGFR wildtype (WT) (IC50 WT (nM), 100 μM ATP), 2920 nM. Also, the IC50 on EGFR Del19/C797S (setting [6]) is 0.7 nM; against EGFR Del19/C797S (setting [7]), 0.6 nM; on EGFR L858R/T790M/C797S (setting [8]) it was 0.05 nM; against EGFR L858R/T790M/C797S (setting [9]), 0.1 nM.

With `O=C(c1ccc(C#Cc2cnc(Nc3ccnc(-c4cnn(S(=O)(=O)C5CC5)c4)n3)cc2N[C@H]2CC[C@@H](CO)CC2)cc1)N1CCC(O)CC1` [Example 441, (4-((6-((2-(1-(Cyclopropylsulfonyl)-1H-pyrazol-4-yl)pyrimidin-4-yl)amino)-4-(((ls, 4s)-4-(hydroxymethyl)cyclohexyl)amino)pyridin-3-yl)ethynyl)phenyl)(4-hydroxypiperidin-1-yl)methanone], the IC50 against EGFR L858R/C797S (setting [2]) is 47.1 nM; at EGFR Del19/T790M/C797S (setting [4]), 2.2 nM; at EGFR Del19/T790M/C797S (Km ATP, read-out: IC50 Del19/T790M/C797S (nM), Km ATP), 2.1 nM; against EGFR wildtype (WT) (IC50 WT (nM), 100 μM ATP), greater than 10000 nM; against EGFR Del19/C797S (setting [7]) it was 2.3 nM; on EGFR L858R/T790M/C797S (setting [9]) it was 0.8 nM. In addition, the IC50 at EGFR L858R/T790M/C797S (Km ATP, read-out: IC50 L858R/T790M/C797S (nM), Km ATP) amounted to 0.5 nM.

Turning to `O=S(=O)(C1CC1)n1cc(-c2nccc(Nc3cc(NC[C@H]4CC[C@H](O)CC4)c(C#Cc4cnn(C(F)F)c4)cn3)n2)cn1` [Example 307, (1r,4r)-4-(((2-((2-(1-(Cyclopropylsulfonyl)-1H-pyrazol-4-yl)pyrimidin-4-yl)amino)-5-((1-(difluoromethyl)-1H-pyrazol-4-yl)ethynyl)pyridin-4-yl)amino)methyl)cyclohexan-1-ol], the IC50 is 21.3 nM at EGFR L858R/C797S (setting [1]); 44.2 nM against EGFR L858R/C797S (setting [2]); 14.7 nM at EGFR Del19/T790M/C797S (setting [3]); 29.6 nM at EGFR Del19/T790M/C797S (setting [4]); 87.7 nM on EGFR wildtype (WT) (setting [5]); greater than 10000 nM against EGFR wildtype (WT) (IC50 WT (nM), 100 μM ATP). For the same compound, the IC50 on EGFR Del19/C797S (setting [6]) turned out to be 17.2 nM; on EGFR Del19/C797S (setting [7]), 37.3 nM; on EGFR L858R/T790M/C797S (setting [8]), 0.3 nM; against EGFR L858R/T790M/C797S (setting [9]) it was 35.1 nM.

Regarding `CN(C)CCC1CCN(c2cc(Nc3ccnc(-c4cnn(S(=O)(=O)C5CC5)c4)n3)ncc2C#Cc2cnn(CC(F)F)c2)CC1` [Example 303, 2-(1-(Cyclopropylsulfonyl)-1H-pyrazol-4-yl)-N-(5-((1-(2,2-difluoroethyl)-1H-pyrazol-4-yl)ethynyl)-4-(4-(2-(dimethylamino)ethyl)piperidin-1-yl)pyridin-2-yl)pyrimidin-4-amine], the IC50 came out at 0.6 nM at EGFR L858R/C797S (setting [1]); 3.4 nM against EGFR L858R/C797S (setting [2]); 0.1 nM on EGFR Del19/T790M/C797S (setting [3]); 0.3 nM on EGFR Del19/T790M/C797S (setting [4]); 1.4 nM at EGFR wildtype (WT) (setting [5]); 206 nM against EGFR wildtype (WT) (IC50 WT (nM), 100 μM ATP). Moreover, the IC50 is 0.4 nM on EGFR Del19/C797S (setting [6]), 0.3 nM on EGFR Del19/C797S (setting [7]), 0.1 nM on EGFR L858R/T790M/C797S (setting [8]) and 0.2 nM against EGFR L858R/T790M/C797S (setting [9]).

For `CC1(CO)CCN(c2cc(Nc3ccnc(-c4cnn(S(=O)(=O)C5CC5)c4)n3)ncc2C#Cc2cccnc2)CC1` [Example 260, (1-(2-((2-(1-(Cyclopropylsulfonyl)-1H-pyrazol-4-yl)pyrimidin-4-yl)amino)-5-(pyridin-3-ylethynyl)pyridin-4-yl)-4-methylpiperidin-4-yl)methanol], the IC50 on EGFR L858R/C797S (setting [1]) was found to be 1 nM; against EGFR L858R/C797S (setting [2]), 10.8 nM; on EGFR Del19/T790M/C797S (setting [3]) it was 0.5 nM; against EGFR Del19/T790M/C797S (setting [4]), 0.4 nM; on EGFR wildtype (WT) (setting [5]), 2.1 nM; against EGFR wildtype (WT) (IC50 WT (nM), 100 μM ATP), 832 nM. The IC50 at EGFR Del19/C797S (setting [6]) worked out at 0.3 nM; against EGFR Del19/C797S (setting [7]), 0.5 nM; on EGFR L858R/T790M/C797S (setting [8]) it was 0.2 nM; against EGFR L858R/T790M/C797S (setting [9]) it was 0.3 nM.

For the origin of these results see patent US11981658B2, “Substituted aminopyridine compounds as EGFR inhibitors” (YUHAN CORPORATION, priority 2021, dated 2024).
